Measured values as given in ChEMBL document CHEMBL5291721, “A preclinical secondary pharmacology resource illuminates target-adverse drug reaction associations of marketed drugs” (Nat Commun, 2023).

Legend:
D(1A) dopamine receptor = D(1A) dopamine receptor (Homo sapiens, UniProt P21728); assay type: functional, cell-based
[1] = molecular target: T1, Amine oxidase [flavin-containing] A (Homo sapiens, UniProt P21397); assay type: functional
T1 sequence (P21397 whole entry): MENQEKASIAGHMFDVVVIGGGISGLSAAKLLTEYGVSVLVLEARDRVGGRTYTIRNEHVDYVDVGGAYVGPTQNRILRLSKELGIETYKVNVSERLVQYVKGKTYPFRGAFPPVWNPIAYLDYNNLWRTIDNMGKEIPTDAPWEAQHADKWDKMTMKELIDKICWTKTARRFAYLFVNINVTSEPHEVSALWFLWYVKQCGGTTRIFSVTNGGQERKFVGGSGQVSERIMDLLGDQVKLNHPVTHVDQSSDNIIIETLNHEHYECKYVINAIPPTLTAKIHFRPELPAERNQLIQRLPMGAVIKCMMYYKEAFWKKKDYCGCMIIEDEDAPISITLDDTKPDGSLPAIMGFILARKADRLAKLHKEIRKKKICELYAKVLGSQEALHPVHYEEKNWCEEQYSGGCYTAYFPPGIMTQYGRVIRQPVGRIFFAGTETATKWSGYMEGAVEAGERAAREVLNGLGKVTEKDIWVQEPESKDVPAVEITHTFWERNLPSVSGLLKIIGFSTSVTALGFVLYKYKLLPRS

[2] = molecular target: T2, Prostaglandin G/H synthase 1 (Rattus norvegicus, UniProt Q63921); assay type: functional
T2 sequence (Q63921 whole entry): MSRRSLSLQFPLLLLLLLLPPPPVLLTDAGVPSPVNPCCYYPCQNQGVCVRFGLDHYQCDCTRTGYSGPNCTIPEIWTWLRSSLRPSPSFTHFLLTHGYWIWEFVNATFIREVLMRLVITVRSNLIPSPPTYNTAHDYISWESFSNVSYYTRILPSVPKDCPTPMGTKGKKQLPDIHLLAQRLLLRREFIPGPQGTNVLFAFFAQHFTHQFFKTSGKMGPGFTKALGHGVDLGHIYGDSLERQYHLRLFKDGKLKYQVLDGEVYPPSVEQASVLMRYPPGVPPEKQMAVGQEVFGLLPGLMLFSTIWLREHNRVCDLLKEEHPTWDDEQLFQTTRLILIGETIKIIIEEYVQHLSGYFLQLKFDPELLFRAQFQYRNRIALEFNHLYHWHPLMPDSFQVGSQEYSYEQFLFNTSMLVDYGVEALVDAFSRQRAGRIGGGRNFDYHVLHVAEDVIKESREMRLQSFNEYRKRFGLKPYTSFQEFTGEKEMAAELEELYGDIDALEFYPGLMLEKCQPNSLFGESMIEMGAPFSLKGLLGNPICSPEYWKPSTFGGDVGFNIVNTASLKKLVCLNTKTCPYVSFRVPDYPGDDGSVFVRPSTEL

[3] = molecular target: Beta-2 adrenergic receptor (Homo sapiens, UniProt P07550)
Beta-2 adrenergic receptor, sequence (P07550 whole entry): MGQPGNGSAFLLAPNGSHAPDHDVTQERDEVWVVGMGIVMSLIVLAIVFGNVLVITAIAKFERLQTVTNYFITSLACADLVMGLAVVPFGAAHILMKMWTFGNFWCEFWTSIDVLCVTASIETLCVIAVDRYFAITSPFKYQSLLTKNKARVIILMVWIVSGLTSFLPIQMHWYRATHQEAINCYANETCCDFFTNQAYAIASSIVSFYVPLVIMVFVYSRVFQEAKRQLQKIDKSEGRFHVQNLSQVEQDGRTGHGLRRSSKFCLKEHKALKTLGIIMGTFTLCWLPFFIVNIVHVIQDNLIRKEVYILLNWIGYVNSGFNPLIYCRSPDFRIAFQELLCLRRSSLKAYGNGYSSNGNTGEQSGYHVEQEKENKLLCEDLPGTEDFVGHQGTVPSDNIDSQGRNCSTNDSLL

[4] = molecular target: Voltage-gated inwardly rectifying potassium channel KCNH2 (Homo sapiens, UniProt Q12809); assay type: functional; conditions: read-out: AC50
Voltage-gated inwardly rectifying potassium channel KCNH2, sequence (Q12809 whole entry): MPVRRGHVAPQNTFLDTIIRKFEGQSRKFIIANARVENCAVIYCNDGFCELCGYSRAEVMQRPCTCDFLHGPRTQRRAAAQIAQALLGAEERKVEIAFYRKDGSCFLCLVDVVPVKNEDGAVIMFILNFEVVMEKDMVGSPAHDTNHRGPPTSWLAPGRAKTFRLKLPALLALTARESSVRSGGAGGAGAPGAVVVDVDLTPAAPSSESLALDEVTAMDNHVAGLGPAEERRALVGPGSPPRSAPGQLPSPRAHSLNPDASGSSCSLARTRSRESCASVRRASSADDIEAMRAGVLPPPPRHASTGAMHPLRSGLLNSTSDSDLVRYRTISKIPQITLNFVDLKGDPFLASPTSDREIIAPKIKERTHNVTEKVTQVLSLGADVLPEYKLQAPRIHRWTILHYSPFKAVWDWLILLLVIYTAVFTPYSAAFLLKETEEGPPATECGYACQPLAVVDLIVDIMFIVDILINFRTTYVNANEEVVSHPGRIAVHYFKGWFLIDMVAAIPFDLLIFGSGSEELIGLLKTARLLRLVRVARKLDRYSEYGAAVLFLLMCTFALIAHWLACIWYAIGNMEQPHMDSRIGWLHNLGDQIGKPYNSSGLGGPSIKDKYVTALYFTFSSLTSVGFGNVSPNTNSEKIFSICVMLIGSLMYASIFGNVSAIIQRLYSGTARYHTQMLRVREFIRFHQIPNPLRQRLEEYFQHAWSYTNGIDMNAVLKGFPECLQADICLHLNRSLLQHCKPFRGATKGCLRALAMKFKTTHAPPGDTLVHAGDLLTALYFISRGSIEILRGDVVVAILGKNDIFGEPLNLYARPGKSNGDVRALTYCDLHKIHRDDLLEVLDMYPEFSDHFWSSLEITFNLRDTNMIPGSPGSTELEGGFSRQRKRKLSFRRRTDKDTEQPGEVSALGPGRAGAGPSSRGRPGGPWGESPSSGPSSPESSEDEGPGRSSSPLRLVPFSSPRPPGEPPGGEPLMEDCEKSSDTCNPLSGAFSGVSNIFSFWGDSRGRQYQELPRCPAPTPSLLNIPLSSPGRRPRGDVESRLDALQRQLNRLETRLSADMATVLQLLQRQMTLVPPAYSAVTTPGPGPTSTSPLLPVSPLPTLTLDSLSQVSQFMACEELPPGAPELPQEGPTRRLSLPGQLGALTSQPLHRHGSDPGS

Adenosine receptor A2a = Adenosine receptor A2a (Homo sapiens, UniProt P29274)
Adenosine receptor A2a, sequence (P29274 whole entry): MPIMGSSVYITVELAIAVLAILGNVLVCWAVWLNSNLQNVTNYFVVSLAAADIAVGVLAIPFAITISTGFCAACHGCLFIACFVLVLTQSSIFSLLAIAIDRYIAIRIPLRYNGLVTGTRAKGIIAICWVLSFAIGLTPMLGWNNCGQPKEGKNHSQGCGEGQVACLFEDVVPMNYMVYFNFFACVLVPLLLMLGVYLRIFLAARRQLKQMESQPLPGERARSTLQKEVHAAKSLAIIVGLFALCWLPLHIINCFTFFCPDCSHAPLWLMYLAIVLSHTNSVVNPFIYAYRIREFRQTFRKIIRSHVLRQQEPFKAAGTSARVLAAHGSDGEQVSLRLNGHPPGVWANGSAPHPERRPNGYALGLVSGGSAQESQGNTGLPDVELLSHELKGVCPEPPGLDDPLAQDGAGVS

[5] = molecular target: T3, Muscarinic acetylcholine receptor M2 (Homo sapiens, UniProt P08172); assay type: functional, cell-based
T3 sequence (P08172 whole entry): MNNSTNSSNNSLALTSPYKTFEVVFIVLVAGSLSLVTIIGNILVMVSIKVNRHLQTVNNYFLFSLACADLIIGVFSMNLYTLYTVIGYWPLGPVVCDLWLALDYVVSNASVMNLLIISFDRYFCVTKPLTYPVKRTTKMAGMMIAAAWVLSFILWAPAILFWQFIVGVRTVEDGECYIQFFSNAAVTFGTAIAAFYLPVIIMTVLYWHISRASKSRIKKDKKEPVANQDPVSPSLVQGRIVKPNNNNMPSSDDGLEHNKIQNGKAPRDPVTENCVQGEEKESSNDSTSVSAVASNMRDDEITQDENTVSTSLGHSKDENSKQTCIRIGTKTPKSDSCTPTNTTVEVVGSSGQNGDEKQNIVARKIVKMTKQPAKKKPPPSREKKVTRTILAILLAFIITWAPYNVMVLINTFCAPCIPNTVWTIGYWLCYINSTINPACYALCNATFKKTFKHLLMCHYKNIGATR

[6] = molecular target: 5-hydroxytryptamine receptor 2A (Homo sapiens, UniProt P28223); assay type: functional, cell-based
5-hydroxytryptamine receptor 2A, sequence (P28223 whole entry): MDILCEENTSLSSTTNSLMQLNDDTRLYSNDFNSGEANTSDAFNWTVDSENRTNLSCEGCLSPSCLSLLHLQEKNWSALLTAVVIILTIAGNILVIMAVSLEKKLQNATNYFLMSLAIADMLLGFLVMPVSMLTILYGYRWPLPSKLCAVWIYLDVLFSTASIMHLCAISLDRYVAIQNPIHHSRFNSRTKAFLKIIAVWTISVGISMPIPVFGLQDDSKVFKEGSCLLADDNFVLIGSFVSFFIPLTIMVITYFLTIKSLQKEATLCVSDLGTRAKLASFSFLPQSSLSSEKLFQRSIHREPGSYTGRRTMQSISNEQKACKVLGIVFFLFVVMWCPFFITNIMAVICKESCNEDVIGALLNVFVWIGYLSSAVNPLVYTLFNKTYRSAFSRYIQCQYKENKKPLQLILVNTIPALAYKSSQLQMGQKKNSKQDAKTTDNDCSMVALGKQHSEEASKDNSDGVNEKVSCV

Progesterone receptor = molecular target: T4, Progesterone receptor (Homo sapiens, UniProt P06401); assay type: functional
T4 sequence (P06401 whole entry): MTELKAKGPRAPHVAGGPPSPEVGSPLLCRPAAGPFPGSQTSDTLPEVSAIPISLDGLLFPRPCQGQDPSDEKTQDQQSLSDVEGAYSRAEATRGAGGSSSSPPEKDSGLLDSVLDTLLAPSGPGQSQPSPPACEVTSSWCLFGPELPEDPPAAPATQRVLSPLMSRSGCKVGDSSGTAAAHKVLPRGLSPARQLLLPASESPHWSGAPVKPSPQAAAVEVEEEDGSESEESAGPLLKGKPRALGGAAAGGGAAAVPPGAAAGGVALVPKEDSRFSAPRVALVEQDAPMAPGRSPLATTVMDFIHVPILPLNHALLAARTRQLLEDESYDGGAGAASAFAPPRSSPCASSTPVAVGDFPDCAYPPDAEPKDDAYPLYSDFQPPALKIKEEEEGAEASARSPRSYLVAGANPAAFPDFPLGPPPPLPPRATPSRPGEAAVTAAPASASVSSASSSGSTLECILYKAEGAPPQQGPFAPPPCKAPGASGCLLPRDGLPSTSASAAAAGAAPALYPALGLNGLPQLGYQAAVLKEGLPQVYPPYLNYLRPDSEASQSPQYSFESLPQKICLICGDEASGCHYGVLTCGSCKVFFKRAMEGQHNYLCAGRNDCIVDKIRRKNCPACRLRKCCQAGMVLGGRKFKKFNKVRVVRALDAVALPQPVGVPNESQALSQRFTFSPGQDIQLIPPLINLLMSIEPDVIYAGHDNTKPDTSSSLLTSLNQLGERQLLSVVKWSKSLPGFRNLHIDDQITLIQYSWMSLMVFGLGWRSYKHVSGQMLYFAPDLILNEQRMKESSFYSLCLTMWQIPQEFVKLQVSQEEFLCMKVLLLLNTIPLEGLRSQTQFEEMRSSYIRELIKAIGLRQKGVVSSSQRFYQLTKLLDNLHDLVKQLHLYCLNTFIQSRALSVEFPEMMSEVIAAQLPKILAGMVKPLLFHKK
Note: assay procedure not described here.

D(1A) dopamine receptor, sequence (P21728 whole entry): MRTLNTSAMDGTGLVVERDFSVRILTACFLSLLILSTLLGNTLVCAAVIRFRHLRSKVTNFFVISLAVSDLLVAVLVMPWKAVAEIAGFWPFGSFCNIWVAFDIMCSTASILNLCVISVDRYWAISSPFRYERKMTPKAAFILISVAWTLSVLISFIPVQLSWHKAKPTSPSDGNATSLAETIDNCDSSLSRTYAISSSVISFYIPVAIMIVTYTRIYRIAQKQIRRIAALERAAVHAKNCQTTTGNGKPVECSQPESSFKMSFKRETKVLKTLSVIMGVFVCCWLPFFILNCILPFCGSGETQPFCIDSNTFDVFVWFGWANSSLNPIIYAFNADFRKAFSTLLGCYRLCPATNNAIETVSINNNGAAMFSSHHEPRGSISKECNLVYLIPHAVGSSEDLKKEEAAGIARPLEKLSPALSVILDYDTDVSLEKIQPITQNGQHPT

| SMILES | AC50 (D(1A) dopamine receptor) [µM] | AC50 [1] [µM] | AC50 [2] [µM] | AC50 [3] [µM] | AC50 [4] [µM] | AC50 (Adenosine receptor A2a) [µM] | AC50 [5] [µM] | AC50 [6] [µM] | AC50 (Progesterone receptor) [µM] |
| --- | --- | --- | --- | --- | --- | --- | --- | --- | --- |
| NC(CO)C(=O)NNCc1ccc(O)c(O)c1O (stereo unspecified) [BENSERAZIDE] | > 10 | > 10 | > 30 | > 10 | > 30 | > 30 | > 10 | > 30 |  |
| O=C1CN=C(c2ccccc2)c2cc(Cl)ccc2N1CC(F)(F)F [HALAZEPAM] | > 30 | > 30 | > 30 |  | > 30 | > 30 | > 30 | > 30 | > 30 |
| Cc1cc(-c2ccccc2)nnc1NCCN1CCOCC1 [MINAPRINE] | > 10 | > 10 | > 30 | > 10 | 3.44 | > 30 | > 10 | > 30 |  |
| CN(C)C(=O)OC1N=C(c2ccccc2)c2cc(Cl)ccc2N(C)C1=O (stereo unspecified) [CAMAZEPAM] | > 10 | > 10 | > 30 | > 10 | > 30 | > 30 | > 10 | > 30 |  |
| CC(C)(Oc1ccc(C2CC2(Cl)Cl)cc1)C(=O)O (stereo unspecified) [CIPROFIBRATE] | > 30 | > 30 | > 30 | > 30 | > 30 | > 30 | > 30 |  | > 30 |
| CC(C)C(=O)OCC(=O)[C@@]12O[C@H](C3CCCCC3)O[C@@H]1C[C@H]1[C@@H]3CCC4=CC(=O)C=C[C@]4(C)[C@H]3[C@@H](O)C[C@@]12C [CICLESONIDE] | > 10 | > 10 | > 10 | > 10 | > 30 | > 30 | > 10 | > 10 |  |
| C1COC(NC(C2CC2)C2CC2)=N1 [RILMENIDINE] | > 10 | > 10 | > 30 | > 10 | > 30 | > 30 | > 10 | > 30 |  |
| O=C(O)CCCc1ccccc1 [PHENYLBUTANOIC ACID] |  | > 30 | > 30 | > 10 | > 30 | > 10 | > 30 | > 30 |  |
| CC(=O)OCC(=O)[C@@]12OC3(CCCC3)O[C@@H]1C[C@H]1[C@@H]3CCC4=CC(=O)C=C[C@]4(C)[C@@]3(F)[C@@H](O)C[C@@]12C [AMCINONIDE] | > 10 | > 10 | > 10 | > 10 | 17.3 | > 10 | > 10 | > 10 |  |
| CN1CCc2cccc3c2[C@H]1Cc1ccc(O)c(O)c1-3 [APOMORPHINE] |  | > 10 | 20.4 | > 10 |  | > 30 | > 10 | 1.79 |  |
| CC[C@]1(O)C[C@@H]2CN(CCc3c([nH]c4ccccc34)[C@@](C(=O)OC)(c3cc4c(cc3OC)N(C)[C@H]3[C@@](O)(C(N)=O)[C@H](O)[C@]5(CC)C=CCN6CC[C@]43[C@@H]65)C2)C1 [VINDESINE] | > 30 | > 30 | 25 | > 30 | 14.9 | > 30 | > 30 |  | > 30 |
| Cc1c(O)c(=O)ccn1C [DEFERIPRONE] | > 30 | > 30 | > 3 | > 30 | > 30 | > 30 | > 30 |  | > 30 |
| CCOc1cc(N)c([N+](=O)[O-])cc1C(=O)NC1CCN(CC2CC=CCC2)CC1 (stereo unspecified) [CINITAPRIDE] | > 30 | > 30 | > 30 | 16 | 0.31 | > 30 | > 30 | 0.07 |  |
| COc1ccccc1OCC(O)COC(N)=O (stereo unspecified) [METHOCARBAMOL] | > 10 | > 10 | > 10 | > 10 | > 30 | > 10 | > 10 |  | > 30 |
| CN1CC(=O)N2[C@H](c3ccc4c(c3)OCO4)c3[nH]c4ccccc4c3C[C@@H]2C1=O | > 10 | > 10 | > 30 | > 10 | > 30 | > 30 | > 10 | > 30 |  |
| CC(Cc1ccccc1)NCCC(c1ccccc1)c1ccccc1 (stereo unspecified) [PRENYLAMINE] | > 30 | > 10 | > 30 | 3.5 | 0.736 | > 30 | > 10 | > 30 |  |
| C#C[C@]1(O)CC[C@H]2[C@@H]3CCC4=CCCC[C@@H]4[C@H]3CC[C@@]21C [LYNESTRENOL] | > 30 | 0.3 | > 30 | > 30 | > 30 | > 30 | > 30 | > 30 |  |
| CC/C=C\C/C=C\C/C=C\CCCCCCCC(=O)O [LINOLENIC ACID] | > 30 | > 30 | 6.3 |  | > 30 | > 30 | > 30 | > 30 |  |
| COc1ccc(C(=O)N2CCN(c3ccc4c(c3)CCC(=O)N4)CC2)cc1OC [VESNARINONE] | > 30 | > 30 | > 30 | > 30 | > 30 | > 30 | > 30 | > 30 |  |
| CN[C@@H]1[C@H](O)[C@H](NC)[C@H]2O[C@@]3(O)C(=O)C[C@@H](C)O[C@H]3O[C@@H]2[C@H]1O [SPECTINOMYCIN] | > 10 | > 10 | > 10 | > 10 | > 30 | > 10 | > 10 |  | > 10 |
